Source: article PMC6379368, “Extracellular and intracellular small-molecule galectin-3 inhibitors” (Scientific Reports, 2019)

What was measured:
[1] = tested on: JIMT-1 cells; experiment: MTT cell viability assay, JIMT-1; type: cell-based; details: JIMT-1, 72 hours, 0.04–40 µM for 1 and 2, 0.04–20 µM for 3
Protocol: (§1) The MTT (3-[4,5-dimethylthiazol-2-yl]−2,5-diphenyltetrazolium bromide) assays were performed as previously described. […] The cells were incubated for 24 hours before addition of galectin-3 inhibitors. The inhibitors were diluted in PBS from their respective stock solution in DMSO (see Galectin-3 inhibitors) and used at final concentrations ranging from 0.04 to 40 μM. DMSO was adjusted to make the final DMSO concentration 0.2% for all inhibitor concentrations, including the control sample (no inhibitor). After 72 hours of treatment, 20 μl of 5 mg/ml MTT solution (in PBS) was added to each well and incubation continued for 1 hour at 37 °C. Thereafter, the MTT containing medium was removed and 100 μl of DMSO was added per well and the plates swirled gently for 10 minutes to dissolve the cells and the purple formazan product precipitate. Absorbance was monitored at 540 nm using a Labsystems iEMS Reader MF (Labsystems Oy, Helsinki, Finland) and the software DeltaSoft II v.4.14 (Biometallics Inc., Princeton, NJ, USA).

[2] = tested on: MCF-7 cells; experiment: MTT cell viability assay, MCF-7; type: cell-based; details: MCF-7, 72 hours, 0.04–40 µM for 1 and 2, 0.04–20 µM for 3
Protocol: as §1

[3] = tested on: HCC1937 cells; experiment: MTT cell viability assay, HCC1937; type: cell-based; details: HCC1937, 72 hours, 0.04–40 µM for 1 and 2, 0.04–20 µM for 3
Protocol: as §1

[4] = tested on: AsPC-1 cells; experiment: MTT assay, AsPC-1 pancreatic cancer cells; type: cell-based; details: AsPC-1, 72 hours
Protocol: (§2) The MTT (3-[4,5-dimethylthiazol-2-yl]−2,5-diphenyltetrazolium bromide) assays were performed as previously described. In brief, cells were seeded in 96-well plates (6000 cells/well for MCF-7 and HCC1937 and 5000 cells for JIMT-1 in 180 μl fully-supplemented medium as described under Cell culture). The cells were incubated for 24 hours before addition of galectin-3 inhibitors. The inhibitors were diluted in PBS from their respective stock solution in DMSO (see Galectin-3 inhibitors) and used at final concentrations ranging from 0.04 to 40 μM. DMSO was adjusted to make the final DMSO concentration 0.2% for all inhibitor concentrations, including the control sample (no inhibitor). After 72 hours of treatment, 20 μl of 5 mg/ml MTT solution (in PBS) was added to each well and incubation continued for 1 hour at 37 °C. […] Absorbance was monitored at 540 nm using a Labsystems iEMS Reader MF (Labsystems Oy, Helsinki, Finland) and the software DeltaSoft II v.4.14 (Biometallics Inc., Princeton, NJ, USA). […]
(§3) Fluorescence anisotropy assay
(§4) The affinity between inhibitor 1 and the carbohydrate recognition domain (CRD) of galectin-8C and between inhibitor 3 and the CRD of galectin-2, -4N, -4C, 8C, and -9C was determined using the fluorescence anisotropy assay described in the main article. […]

[5] = tested on: BxPc-3 cells; experiment: MTT assay, BxPc-3 pancreatic cancer cells; type: cell-based; details: BxPc-3, 72 hours
Protocol: as §2, §3, §4

[6] = tested on: MIA PaCa-2 cells; experiment: MTT assay, MIA PaCa-2 pancreatic cancer cells; type: cell-based; details: MIA PaCa-2, 72 hours
Protocol: as §2, §3, §4

[7] = tested on: galectin-1; parameters: method as in Delaine et al., Salameh et al., Peterson et al.; details: lower compared to galectin-3; ref Delaine et al., Salameh et al., Peterson et al.; cited from earlier work
[8] = tested on: pathological corneal neovascularization and fibrosis; parameters: method as in PMID 27356186, PMID 28055102; details: cited from earlier work
[9] = Caco-2 permeability assay; details: human, Caco-2, pH 7.4

In the case of `OC[C@H]1O[C@@H](S[C@@H]2O[C@H](CO)[C@H](O)[C@H](n3cc(-c4cccc(F)c4)nn3)[C@H]2O)[C@H](O)[C@@H](n2cc(-c3cccc(F)c3)nn2)[C@H]1O` [compound 1], the “cell viability (MTT)” value [1] is reported as “no apparent change in cell viability”, the “cell viability (MTT)” value [2] is reported as “no apparent change in cell viability” and the “cell viability (MTT)” value [3] is reported as “no apparent change in cell viability”. The “toxicity (MTT)” value [4] was “low toxicity”, the “toxicity (MTT)” value [5] was “low toxicity” and the “toxicity (MTT)” value [6] was “low toxicity”. For the same compound, the “affinity for galectin-1” value [7] was “high affinity”, the “effect in pathological corneal neovascularization and fibrosis” value [8] was “therapeutic effects” and the Papp A→B [9] was 0.07 ×10⁻⁶ cm/s. For the same compound, the Papp B→A [9] was 0.05 ×10⁻⁶ cm/s.
